EC50 data for 56 compounds are collected here from BindingDB's records for doi:10.7270/Q2Z31X54 (Burnham Center For Chemical Genomics, 2011).

Molecules are shown by their SMILES. pEC50: −log10 of the molar value.

For one test, the target named is T1, Endoribonuclease toxin MazF (Escherichia coli (strain K12), UniProt P0AE70).
T1 sequence (P0AE70 whole entry): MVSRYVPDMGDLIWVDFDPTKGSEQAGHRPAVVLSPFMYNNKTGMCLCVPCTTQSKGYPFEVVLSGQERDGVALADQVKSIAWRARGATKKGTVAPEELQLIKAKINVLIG
The test can be described thus: MazF toxin RNase activators, dose response, biochemical, fluorescence, single-stranded RNA substrate, uHTS hits (AID 588481).
Conditions: not given
As a reminder, the pEC50 is the negative decadic logarithm of the EC50, by convention in mol/L. A low value points to a large EC50. Consider `CCOc1ccc(N=CCC(=O)c2ccc(OC)cc2)c([N+](=O)[O-])c1`, for which the pEC50 is under 4.00.
Still for that read-out and setting: under `O=C1N=c2ccccc2=C1NNc1ccc(F)cc1` stands under 4.00; under `Cc1ccc(Cl)c2c1=NC(=O)C=2NNc1ccccc1`, 4.72.
On the same count and under the same terms, under `N#CC(C(=O)c1ccc([N+](=O)[O-])o1)c1nc2ccccc2[nH]1` (stereo unspecified) stands under 4.00.
Same read-out and setting: under `Cc1oc(C)c2c(=O)ccc3c(c12)OC(=N)C(C#N)C3c1ccccc1` (stereo unspecified) stands under 4.00.
`CC1CC(=O)C2=C(C1)OC(=N)C(C#N)C2c1coc2ccccc2c1=O` (stereo unspecified) gave a pEC50 of under 4.00.
For the compound `O=C1N=c2ccccc2=C1NNc1ccccc1F`, the pEC50 is under 4.00.
The same measure, in the same setting: under `O=C1Nc2ccc([N+](=O)[O-])cc2C1=NNc1ccc(F)cc1` stands under 4.00.
On the same count and under the same terms, under `Cc1ccc2nc(N3C(=O)C(=O)C(C(=O)c4ccco4)C3c3cccs3)sc2c1` (stereo unspecified) stands under 4.00; under `Cc1cc(O)n(-c2ccc(NCc3ccc(Cl)cc3)c([N+](=O)[O-])c2)c1O` [1-{4-[(4-chlorobenzyl)amino]-3-nitrophenyl}-3-methylpyrrolidine-2,5-dione], 4.02; under `COc1ccc(Nc2oc3cc(=O)ccc-3cc2C(=O)NCC2CCCO2)c(OC)c1` (stereo unspecified) [2-(2,4-dimethoxyanilino)-7-oxo-N-(2-oxolanylmethyl)-1-benzopyran-3-carboxamide], under 4.00.
Same read-out and setting: under `CCCCOc1cccc(C2C(C(=O)c3ccc(C)o3)C(=O)C(=O)N2c2nnc(C)s2)c1` (stereo unspecified) [2-(3-butoxyphenyl)-3-(5-methylfuran-2-yl)carbonyl-1-(5-methyl-1,3,4-thiadiazol-2-yl)-4-oxidanyl-2H-pyrrol-5-one] stands under 4.00.
`CCOc1cccc(C2C(C(=O)c3ccc(C)o3)C(=O)C(=O)N2c2nccs2)c1` (stereo unspecified) [2-(3-ethoxyphenyl)-3-(5-methylfuran-2-yl)carbonyl-4-oxidanyl-1-(1,3-thiazol-2-yl)-2H-pyrrol-5-one] had a pEC50 of 4.77.
Still for that read-out and setting: under `Cc1[nH]c2ccccc2c1/C=C1\N=C(c2ccc(F)cc2)OC1=O` [2-(4-fluorophenyl)-4-[(2-methyl-1H-indol-3-yl)methylene]-1,3-oxazol-5(4H)-one] stands under 4.00; under `Cc1nnc(N2C(=O)C(=O)C(C(=O)c3ccco3)C2c2ccc(C(C)(C)C)cc2)s1` (stereo unspecified) [2-(4-tert-butylphenyl)-3-(furan-2-carbonyl)-4-hydroxy-1-(5-methyl-1,3,4-thiadiazol-2-yl)-2H-pyrrol-5-one], under 4.00.
Same read-out and setting: under `O=[N+]([O-])c1ccc(N=NCc2ccccc2)c(F)c1` [2-fluoranyl-4-nitro-N-[(phenylmethylidene)amino]aniline] stands under 4.00; under `O=C1C(=O)N(c2nccs2)C(c2ccccc2)C1C(=O)c1cc2ccccc2o1` (stereo unspecified) [3-(1-benzofuran-2-carbonyl)-4-hydroxy-2-phenyl-1-(1,3-thiazol-2-yl)-2H-pyrrol-5-one], under 4.00.
On the same count and under the same terms, under `C=CCOc1cccc(C2C(C(=O)c3ccc(C)o3)C(=O)C(=O)N2c2nccs2)c1` (stereo unspecified) [3-(5-methylfuran-2-yl)carbonyl-4-oxidanyl-2-(3-prop-2-enoxyphenyl)-1-(1,3-thiazol-2-yl)-2H-pyrrol-5-one] stands 4.94; under `CSc1ccc(C2C(C(=O)c3ccco3)C(=O)C(=O)N2c2nnc(SC)s2)cc1` (stereo unspecified) [3-(furan-2-carbonyl)-4-hydroxy-2-(4-methylsulfanylphenyl)-1-(5-methylsulfanyl-1,3,4-thiadiazol-2-yl)-2H-pyrrol-5-one], under 4.00; under `O=C1Nc2ccccc2C1=NNc1ccccc1` [3-(phenylhydrazo)-2-indolone], under 4.00.
`COc1cccc(C2=Nc3nnnn3C(c3ccc(N(C)C)cc3)C2)c1` (stereo unspecified) [4-[5-(3-methoxyphenyl)-1,7-dihydro-[1,2,3,4]tetrazolo[1,5-a]pyrimidin-7-yl]-N,N-dimethyl-aniline] gave a pEC50 of under 4.00.
Same read-out and setting: under `N#Cc1ccc(-n2c(O)c3[nH][nH]c(C(=O)c4ccc5ccccc5n4)c-3c2=O)cc1` [4-[(3aS,6aS)-4,6-dioxo-3-[oxo(2-quinolinyl)methyl]-3a,6a-dihydro-1H-pyrrolo[3,4-c]pyrazol-5-yl]benzonitrile] stands 4.82; under `Cc1ccc(N/N=C2/C(=O)Nc3ccc(F)cc32)cc1` [5-fluoro-3-[2-(4-methylphenyl)hydrazono]indolin-2-one], under 4.00; under `O=c1cc2oc(O)c3cc(O)c(O)c(O)c3c-2oc1=O` [6,8,9,10-tetrahydroxypyran[3,2-c]isochromene-2,3-quinone], 4.09.
Same read-out and setting: under `COCc1n[nH]c2c1C(c1cc(OC)c(O)c(OC)c1)C(C#N)C(=N)O2` (stereo unspecified) [6-azanyl-4-(3,5-dimethoxy-4-oxidanyl-phenyl)-3-(methoxymethyl)-2,4-dihydropyrano[2,3-c]pyrazole-5-carbonitrile] stands under 4.00; under `Cn1c(C(C#N)C(=O)COc2ccc3ccccc3c2)nc2ccccc21` (stereo unspecified) [(2E)-2-(3-methyl-1H-benzimidazol-2-ylidene)-4-(2-naphthalenyloxy)-3-oxobutanenitrile], under 4.00; under `COc1cc2c(cc1OC)C(CC(=O)c1ccc([N+](=O)[O-])c(C)c1)=NCC2` [(2Z)-2-(6,7-dimethoxy-3,4-dihydro-2H-isoquinolin-1-ylidene)-1-(3-methyl-4-nitrophenyl)ethanone], under 4.00.
Same read-out and setting: under `O=C1N=c2ccccc2=C1NNc1cccc(Cl)c1` [(3E)-1H-indole-2,3-dione 3-[(3-chlorophenyl)hydrazone]] stands under 4.00; under `CCCCN1C(=O)C(=NNc2ccccc2O)c2ccccc21` [(3Z)-1-butyl-3-[(2-hydroxyphenyl)hydrazinylidene]indol-2-one], 4.35; under `CCCN1C(=O)C(=NNc2ccc3ccccc3n2)c2ccccc21` [(3Z)-1-propyl-3-(2-quinolinylhydrazinylidene)-2-indolone], under 4.00.
For the compound `Cc1ccc(NN=C2C(=O)N(CN3CCOCC3)c3ccccc32)cc1` [(3Z)-3-[(4-methylphenyl)hydrazinylidene]-1-(4-morpholinylmethyl)-2-indolone], the pEC50 is 4.40.
In turn, `O=C(c1ccc2ccccc2n1)c1[nH][nH]c2c(O)n(-c3cccc(F)c3)c(=O)c1-2` [(3aS,6aS)-5-(3-fluorophenyl)-3-[oxo(2-quinolinyl)methyl]-3a,6a-dihydro-1H-pyrrolo[3,4-c]pyrazole-4,6-dione] had a pEC50 of 4.69.
Same read-out and setting: under `N=C(N)C1=CC(=O)/C(=C/C=c2ccc(=C(N)N)cc2)C=C1` [(4E)-4-[2-[4-[bis(azanyl)methylidene]cyclohexa-2,5-dien-1-ylidene]ethylidene]-3-oxidanylidene-cyclohexa-1,5-diene-1-carboximidamide;2-oxidanylethanesulfonic acid] stands 5.32.
In turn, `O=C1NC(=O)N(C2CCCCC2)C(=O)C1=CCC=Nc1ccccc1` [(5Z)-5-[(E)-3-anilinoprop-2-enylidene]-1-cyclohexyl-1,3-diazinane-2,4,6-trione] showed a pEC50 of under 4.00.
The same measure, in the same setting: under `Clc1cccc(C(Cc2nc3ccccc3[nH]2)N=Nc2ccccc2)c1` (stereo unspecified) [MLS000374846] stands under 4.00; under `COc1ccc(CN=Nc2ccc([N+](=O)[O-])cc2S(=O)(=O)N2CCN(C)CC2)cc1` [MLS000553953], under 4.00.
The same measure, in the same setting: under `Cc1cccc(NNC2=c3cc(F)ccc3=NC2=O)c1` [MLS000673317] stands 4.41; under `O=c1[nH]c(N=NCc2ccc(F)cc2)nc2ccccc12` [MLS000700887], 5.15; under `CCC(N=Nc1cccc(C)c1)c1cnnc(SC)n1` (stereo unspecified) [MLS000705906], under 4.00.
`C=c1[nH]n(-c2ccccc2)c(=O)c1=Cc1cc(C)n(C2CC2)c1C` [MLS001018445] showed a pEC50 of under 4.00.
Still for that read-out and setting: under `CCSc1nnc(N2C(=O)C(=O)C(C(=O)c3ccco3)C2c2cccc(OC)c2)s1` (stereo unspecified) [MLS001140620] stands under 4.00; under `O=[N+]([O-])c1cc/c(=N\c2ccccc2O)c2no[nH]c1-2` [MLS001206694], under 4.00; under `Oc1ccc2ccccc2c1C=Nn1c(O)csc1=S` [MLS002707175], under 4.00.
The compound `O=[N+]([O-])c1ccc(N=NCc2ccc3c(c2)OCO3)nc1` [N-(1,3-benzodioxol-5-ylmethylideneamino)-5-nitro-pyridin-2-amine] gave a pEC50 of 4.39.
Same read-out and setting: under `O=[N+]([O-])c1ccc(N=NCc2cccc3ccccc23)nc1` [N-(naphthalen-1-ylmethylideneamino)-5-nitro-pyridin-2-amine] stands under 4.00.
On the same count and under the same terms, under `CCN(CC)c1ccc(CN=Nc2ccc([N+](=O)[O-])cn2)cc1` [N-[[4-(diethylamino)phenyl]methylideneamino]-5-nitro-pyridin-2-amine] stands under 4.00; under `Cc1ccc(C2=Nc3nnnn3C(c3ccc(N(C)C)cc3)C2)cc1` (stereo unspecified) [SMR000092467], under 4.00; under `COc1ccc(C=C2CCCC(C(=O)C(F)(F)F)C2=O)cc1` (stereo unspecified) [SMR000142699], under 4.00.
Consider `Cc1[nH]c2ccccc2c1/C=C1\N=C(c2ccc(C(F)(F)F)cc2)OC1=O` [SMR000152363], for which the pEC50 is under 4.00.
Same read-out and setting: under `O=C(c1ccc2ccccc2n1)c1[nH][nH]c2c(O)n(-c3cccc(C(F)(F)F)c3)c(=O)c1-2` [SMR000212847] stands 4.32.
On the same count and under the same terms, under `COc1ccc(N=CCC(=O)c2ccc(C)cc2)cc1OC` [SMR000269732] stands under 4.00.
`COc1cc(C2c3c(-c4cccs4)n[nH]c3OC(=N)C2C#N)cc(OC)c1O` (stereo unspecified) [SMR000275523] showed a pEC50 of under 4.00.
Still for that read-out and setting: under `CC1(C)CC(=O)C(N=Nc2cc3c(cc2[N+](=O)[O-])OCCO3)C(=O)C1` [SMR000348183] stands under 4.00; under `O=C1N=c2ccc(Br)cc2=C1NNc1ccc(F)cc1` [SMR000564049], under 4.00; under `CSc1nnc(N2C(=O)C(=O)C(C(=O)c3ccc(C)o3)C2c2ccc(C)cc2)s1` (stereo unspecified) [SMR000650392], 5.01.

The same test, now with this note: inactive by the depositor's call.
On to `Cc1ccc(S(=O)(=O)N[N-][C+]2CCC(C(C)(C)C)CC2)cc1[N+](=O)[O-]` [SMR000241764], for which the pEC50 was 4.28.
